In the NIST ThermoML archive (doi:10.1021/je900596d):

Settings: for mass density: 283.24 K, Fluid (supercritical or subcritical phases), Vibrating tube method; for vapor or sublimation pressure: Liquid, Closed cell (Static) method

FC(F)=C(F)C(F)(F)F [hexafluoropropene]
Settings	mass density [kg/m3]	vapor or sublimation pressure [kPa]
114 kPa	7.35	–
116.4 kPa	7.51	–
118.8 kPa	7.66	–
121.1 kPa	7.8	–
123.6 kPa	8.03	–
126.1 kPa	8.11	–
128.5 kPa	8.33	–
131 kPa	8.54	–
133.4 kPa	8.66	–
135.9 kPa	8.94	–
140.7 kPa	9.1	–
143.2 kPa	9.36	–
145.7 kPa	9.54	–
148.1 kPa	9.69	–
150.6 kPa	9.83	–
153 kPa	9.99	–
155.6 kPa	10.24	–
158.1 kPa	10.37	–
160.5 kPa	10.54	–
163 kPa	10.74	–
165.1 kPa	10.87	–
167.6 kPa	11.05	–
170 kPa	11.2	–
172.5 kPa	11.37	–
176.6 kPa	11.7	–
179.2 kPa	11.83	–
181.6 kPa	12.01	–
184.2 kPa	12.12	–
186.6 kPa	12.42	–
190.9 kPa	12.6	–
193.4 kPa	12.77	–
195.9 kPa	13.03	–
198.4 kPa	13.21	–
203.3 kPa	13.55	–
205.8 kPa	13.69	–
208.3 kPa	13.93	–
210.8 kPa	14.08	–
213.3 kPa	14.3	–
215.8 kPa	14.4	–
218.3 kPa	14.66	–
220.8 kPa	14.83	–
223.3 kPa	14.99	–
225.7 kPa	15.16	–
228.2 kPa	15.32	–
230.7 kPa	15.58	–
233.2 kPa	15.69	–
235.7 kPa	15.79	–
238.2 kPa	16.04	–
240.7 kPa	16.28	–
243.2 kPa	16.38	–
245.6 kPa	16.6	–
248.1 kPa	16.83	–
250.7 kPa	17.01	–
253.2 kPa	17.15	–
255.6 kPa	17.39	–
258.1 kPa	17.58	–
260.5 kPa	17.67	–
263 kPa	17.89	–
265.5 kPa	18.02	–
268 kPa	18.31	–
270.4 kPa	18.49	–
272.9 kPa	18.6	–
275.4 kPa	18.8	–
277.9 kPa	19.01	–
280.5 kPa	19.23	–
283.1 kPa	19.39	–
286.3 kPa	19.61	–
288.21 K	–	537.1
288.7 kPa	19.79	–
291.2 kPa	19.98	–
293.19 K	–	625.9
293.7 kPa	20.2	–
296.1 kPa	20.4	–
298.22 K	–	728.3
298.6 kPa	20.56	–
305.2 kPa	21.07	–
308.4 kPa	21.36	–
311.6 kPa	21.56	–
314.8 kPa	21.85	–
318.2 kPa	22.13	–
321.5 kPa	22.28	–
324.6 kPa	22.54	–
327.9 kPa	22.87	–
331.2 kPa	23.12	–
334.4 kPa	23.37	–
340.9 kPa	23.85	–
344.2 kPa	24.11	–
347.4 kPa	24.4	–
350.6 kPa	24.64	–
353.9 kPa	24.84	–
357.1 kPa	25.07	–
360.3 kPa	25.34	–
363.5 kPa	25.56	–
366.7 kPa	25.93	–
370 kPa	26.15	–
373.1 kPa	26.37	–
376.4 kPa	26.74	–
379.5 kPa	26.94	–
382.8 kPa	27.24	–
385.9 kPa	27.44	–
389.2 kPa	27.66	–
392.3 kPa	27.96	–
395.5 kPa	28.23	–
398.7 kPa	28.48	–
401.8 kPa	28.77	–
405 kPa	28.98	–
408.2 kPa	29.26	–
411.4 kPa	29.53	–
414.6 kPa	29.77	–
417.7 kPa	30.05	–
420.9 kPa	30.37	–
424 kPa	30.54	–
427.2 kPa	30.81	–
430.3 kPa	31.07	–
433.5 kPa	31.39	–
436.6 kPa	31.7	–
439.7 kPa	31.9	–
442.9 kPa	32.26	–
446 kPa	32.45	–
449 kPa	32.73	–
452.1 kPa	32.99	–
454.4 kPa	33.16	–
456.7 kPa	33.3	–
460.5 kPa	33.77	–
462.7 kPa	33.86	–
463.5 kPa	34.04	–
464.2 kPa	34.05	–
465 kPa	34.18	–
465.7 kPa	34.33	–
466.4 kPa	34.49	–
467.1 kPa	34.74	–
467.7 kPa	35.03	–
468.3 kPa	35.5	–
468.9 kPa	35.71	–
